Measured values as given in patent US20210069272A1, “METHODS FOR SKIN WHITENING, ULTRAVIOLET RADIATION PROTECTION AND SUPPRESSION OF GLYCATION USING GREEN MANGO EXTRACTS AND COMPOUNDS OBTAINED THEREFROM” (TCI CO., LTD., priority 2019, published 2021).

How the values were obtained:
porcine collagen = experiment: Anti-glycation assay, AGEs formation due to collagen glycation with fructose; type: biochemical; details: 100 μg/mL aqueous solution, 50° C., 24 hours
Method: In order to evaluate the anti-glycation activity of the green mango extract, an anti-glycation assay was performed to determine the inhibitory effect of the green mango extract described in Example 1 on glycation of porcine collagen. Briefly, a 60 mg/mL collagen solution (containing 0.06% sodium azide) and a 1.5 M fructose solution were first prepared using a 200 mM phosphate buffer (pH 7.4). For collagen to undergo glycation, a mixture of 0.2 mL of the collagen solution and 0.2 mL of the fructose solution was mixed thoroughly with 0.2 mL of the green mango extract sample at 140, 70, 14, 1.4, or 0.14 mg/mL (diluted with deionized water), or mixed with deionized water (as a control). The reaction mixtures were incubated at 50° C. for 24 hours. Thereafter, aminoguanidine (AG, purchased from Sigma) was added to terminate the glycation reaction. […] The reaction mixtures were incubated at 50° C. for 24 hours, and the fluorescence intensity of each of the mixtures (0.1 mL) at 0 hours and 24 hours was measured to calculate the rate of AGEs formation due to collagen glycation.

melanoma cells B16F10 = experiment: Melanin production assay in melanoma cells B16F10; type: cell-based, mouse; details: 0.25 mg/mL, 48 hours
Method: The melanin levels in B 16F10 melanoma cells were determined according to procedures described below. Cells were harvested from the cell culture treated as indicated. The cells were washed with PBS and treated with trypsin for 3 minutes. The suspended cells were collected by centrifugation (400×g, 5 minutes), washed twice with PBS, and then resuspended in 200 μL of PBS. The cell suspension was frozen in liquid nitrogen for 10 minutes and then left at room temperature for about 30 minutes until completely thawed, followed by centrifugation (12,000 g, 3 minutes) to remove the supernatant. The remaining cell pellet was mixed thoroughly with 120 μL of 1 N sodium hydroxide aqueous solution, and heated at 60° C. for 1 hour to obtain a cell lysate containing dissolved melanin. 100 μL of the cell lysate was transferred to a 96-well plate, and the absorbance at 450 nm (OD450) was measured using an enzyme-linked immunosorbent assay (ELISA) reader (BioTek). The relative melanin level is calculated according to the following formula: Relative melanin level (%)=(OD450each group/OD450mock control)×100% In order to examine the effect of the green mango extract on melanin production, the melanoma cells B16F10 was assayed for melanin production after treatment with the green mango extract described in Example 1. […]

Row | SMILES | AGEs formation compared to the control (porcine collagen) | inhibitory effect on melanin production, green mango extract versus kojic acid at the same concentration (melanoma cells B16F10)
1 | O=C(OCC1OC(OC(=O)c2cc(O)c(O)c(O)c2)C(OC(=O)c2cc(O)c(O)c(O)c2)C(OC(=O)c2cc(O)c(O)c(O)c2)C1OC(=O)c1cc(O)c(O)c(O)c1)c1ccc(O)cc1 (stereo not drawn) [formula (I)] | about 60.2% | –
2 | O=C(OCC1OC(OC(=O)c2cc(O)c(O)c(O)c2)C(OC(=O)c2cc(O)c(O)c(O)c2)C(OC(=O)c2cc(O)c(O)c(O)c2)C1OC(=O)c1cc(O)c(O)c(O)c1)c1cc(O)c(O)c(O)c1 (stereo not drawn) [formula (II)] | ~73.7% | –
3 | O=c1cc(CO)occ1O [kojic acid] | – | comparable
